# Measured values reported in patent US5053006A, “Method for the permanent occlusion of arteries” (priority 1990, dated 1991).
# Where “and” joins values, the source holds several entries; their conditions need not be identical. Equal values may be shown once.
# Assays:
# common carotid artery = experiment: Argon laser photothrombotic occlusion of common carotid artery (Example 1); assay type: in vivo, rat (male Wistar); settings: 514.5 nm argon laser
# Source text: Male Wistar rats, each weighing 280 to 330 gm, were anesthetized with 1.5% halothane and maintained on a 70:30 mixture of nitrous oxide and oxygen delivered by a closely fitting Mylar face mask (Watson et al., J. Neurosurg., 66:748-754, 1987, the disclosure of which is hereby incorporated by reference and relied upon). After separation of the temporal musculature, the middle cerebral artery was exposed via a small subtemporal craniectomy produced by a high-speed drill under an operating microscope; the dura was left intact. The common carotid arteries were exposed bilaterally by a midline incision extending from the mental process to the sternal notch; the sternocleidomastoid muscle was then retracted laterally to expose the underlying artery. Bleeding from the operative site was controlled with pressure and Gelfoam. The animal was then prepared for irradiation by filling the surgical cavity with saline, just submerging the exposed blood vessel. The saline solution was kept clear by frequent suction and irrigation. The femoral arteries were exposed by bilateral inguinal incisions and were prepared for irradiation in a fashion similar to that described above.
# As assessed by observation of rose bengal fluorescence, thrombus development in the common carotid or femoral arteries followed a course similar to that observed in the middle cerebral artery, except that the thrombus appeared as a […] as viewed through the blood vessel wall. Intense scattering of the incident laser light was also noted at about the time that arterial pulsations at the level of irradiation ceased.
# Ultrastructural studies were carried out at either 30 minutes or 7 days following irradiation. Animals were perfused transcardially with 0.9% sodium chloride solution followed by 2% paraformaldehyde and 2.5% glutaraldehyde in a 0.1 M sodium phosphate buffer. Perfusion pressure was monitored throughout the procedure and was maintained at 100 mm Hg. After perfusion fixation, the femoral and common carotid arteries were isolated and placed in fixative for an additional 2 hours. […]
# corneal neovasculature = assay type: in vivo, New Zealand white rabbit
# Source text: Nine New Zealand white strain rabbits weighting 1 to 2 kg were rendered hypercholesterolemic by foods that contained high levels of cholesterol, as described in Stock et. al., Arch. Ophthalmol., 103:726-730, 1985; and Mendelsohn et al., Ophthalmic Surg., 17:502-508, 1986. Eight days after commencement of the high-cholesterol diet, corneal sutures were implanted in both eyes according to the surgical procedure described in Mendelsohn et al., Ophthalmic Surg., 17:502-508, 1986.
# On day 22, slit-lamp photographs and fluorescein angiograms were obtained of all corneas (Mendelsohn et al., Arch. Ophthalmol., 105:983-988, 1987, the disclosure of which is hereby incorporated by reference and relied upon). On the next day, one eye of each rabbit underwent laser surgery, with the other eye serving as a comparative control. Rose bengal dye was dissolved at a concentration of 30 mg/ml in 0.9% saline solution. For the initial injection, the dye solution was administered at a total body concentration of 45 mg/kg. For the two animals in which the procedure took longer than 25 minutes, a booster injection of 15 mg/kg was administered. Irradiations of corneal vessels were carried out with an argon ion laser (Model 95, Cooper Laser-Sonica, Sunnyvale, Calif.) operated in the TEM00 mode at 514.5 nm. The beam was directed toward an aluminized mechanical shutter (AW Vincent Associates, Rochester, NY), which reflected it at a right angle through a 514.5-nm custom interference filter with a transmittance of 92% (Omega Optical, Brattleboro, VT) and then through a fused silica lens with a focal length of 7.5 cm for focusing into a 2.5-m fiberoptic cable 400 μm in diameter. In the optical fiber, the gaussian input beam profile was converted into an output beam. The output was collimated by a plano convex lens 3.5 cm in focal length and focused with a plano convex lens with a focal length of 1.0 cm. The lenses were mounted in a beam telescope attached to an X-Y positioning device (Daedal Inc., Harrison City, Pa.). The beam diameter was measured with a calibrated reticle in the ocular of a ×20 operating microscope. By observing, through a 514.5-nm rejection filter, the fluorescence of a white card impregnated with rhodamine B, the minimum diameter of the organe fluorescent spot at the focal point was determined to be 63 μm. Combining the transmission efficiencies of the three uncoated lenses (92% per lens, 76% total transmission) with those of the optical fiber and interference filter yielded a system transmission efficiency of 61.5%. This reduced the incident power level of the laser from 215 mW to an effective power level of 132 mW; this corresponded to an incident intensity at the focal point of 4.23 kW/cm^2 . During shutter closure, irradiations were carried out in 0.2-s intervals. When the shutter was opened, the low-power beam, which was reflected off an optical flat and through the optical system, was used for aligning the next vessel selected for irradiation.
# One eye of each rabbit was subjected to laser applications that were directed toward the vascular branching points of the limbal and corneal feeder vessels adjacent to the sites of lipid deposits. The irradiated blood vessel segment was observed through the ×20 operating microcope fitted with the 514.5-nm rejection band interference filter. Initially, the irradiated segment appeared yellow-orange because the fluorescence of rose bengal had been absorbed into erythrocyte plasma membranes and plasma proteins. As platelets accumulated, the fluorescence became yellowish and less intense. The color gradually disappeared due to the exclusion of red blood cells, indicating occlusion of the vessel. A striking event that preceded the thrombus was intense vasoconstriction at the site of irradiation. Constriction of the vessel could be observed following the initial one to three laser shots in each segment. […]
# [1] = rabbit, in vivo
# Procedure: In order to investigate possible systemic side effects of rose bengal, the blood chemistry profiles of healthy rabbits before and after intravenous injection of rose bengal were studied. Four practical dosages, i.e., 40, 16, 8 and 4 mg/kg bw, were administered. Five rabbits were used for each dosage except for the dosage of 40 mg/kg bw, in which case ten rabbits were used. Three blood samples (3 ml each) were collected from each rabbit before injection with rose bengal, and one and five days following injection.
# [2] = in vivo; cited from earlier work
# [3] = common carotid and femoral arteries
# Source text for arteries: The method utilizes an intravascular photochemical reaction to induce structural damage to normally non-thrombogenic vascular endothelium. The photochemical process is mediated by rose bengal, a potent photosensitizing dye injected into the bloodstream. Absorption by the injected rose bengal dye of light at a wavelength sufficient to electronically excite the rose bengal molecules induces photochemical injury via singlet oxygen peroxidation reactions in the vascular endothelium at the point of interaction of the rose bengal and the light beam, which is preferably a laser light beam.
# A tunable argon ion laser (a Lexel Model 95 argon ion laser, manufactured by Cooper LaserSonics, Santa Clara, Calif.), operated at 514.5 nm, was used for the irradiation. The argon ion laser was focused according to a derived criterion (described below) to facilitate maximally efficient intraluminal growth of the occlusive thrombus. The middle cerebral artery was irradiated with 7.5 mW delivered either continuously or via a beam-chopper operated at 200 Hz (with 75 mW peak power, 10% duty cycle). The carotid and femoral arteries were each irradiated with a chopped beam at 1 W average power (2 W peak power chopped at 200 Hz and 50% duty cycle). […] The middle cerebral artery (diameter approximately 200 μm) was irradiated through a spherical lens of 39-cm focal length at a distance of 40 cm from the artery; with correction for optical reflection losses, the incident intensity was 16 W/sq cm. The femoral artery (diameter 670 μm) and common carotid artery (diameter 800 μm) were irradiated through a spherical lens of 61-cm focal length at distances of 42 and 26 cm from the artery, respectively. In each case, the average incident intensity, with correction for irradiation geometry, was approximately 160 W/sq cm.
# A stock solution of rose bengal dye, 30 mg/ml in 0.9% saline, was made up for intravenous injection (via the tail vein) at a dose of 40 mg/kg. Before dye injection, the contralateral (control) arteries were irradiated for 15 minutes at the stated intensities. Following this, simultaneous intravenous infusion of the rose bengal solution (at 20 mg/kg/min over 2 minutes) and irradiation of the ipsilateral artery was begun. Five rats were used for common carotid artery irradiation and four for femoral artery irradiation. In the latter case, two rats received only 20 mg/kg. Middle cerebral artery irradiation was performed in a large series of approximately 70 animals.
# Procedure for middle cerebral artery: In order to conduct irradiation of the rat middle cerebral artery at normal blood pressure, oral intubation was performed and mechanical ventilation was initiated after paralysis with pancuronium bromide. The rat was then placed on a tiltable stereotaxic frame, and the middle cerebral artery was exposed through a subtemporal approach. The right temporalis musculature was reflected anteriorally, and a 2×2 mm subtemporal craniotomy was carried out with the aid of a high-speed drill under a dissecting microscope, leaving the middle cerebral artery exposed and the dura intact at the level of the olfactory tract. Rose bengal dye (2 mg in 0.133 ml saline per 100 g animal weight) was administered intravenously, resulting in a blood concentration of 340 μM.
# The right middle cerebral artery, at a point just distal to the olfactory branches, was irradiated with the beam of a tunable argon ion laser (Lexel Model 95, Cooper LaserSonics, Santa Clara, CA), operated at 514.5 nm in the continuous mode at a power level of 50 mW. The beam was focused longitudinally onto the middle cerebral artery with two cylindrical lenses, both of 30 cm focal length. […] During irradiation, the irradiated segment appeared orange, owing to rose bengal fluorescence in the flowing blood stream. […]
structure (smiles),measurement,setting,value
O=C([O-])c1c(Cl)c(Cl)c(Cl)c(Cl)c1-c1c2cc(I)c(=O)c(I)c-2oc2c(I)c([O-])c(I)cc12.[Na+].[Na+] [rose bengal],"complete occlusion, irradiation time",common carotid artery; 40 mg/kg i.v.,≤ 3 min
same,energy fluence at occlusion,common carotid artery,about 35 kJ/sq cm
same,total energy deposited at occlusion,common carotid artery,140 to 180 joules (J)
same,No. of Laser Shots,"corneal neovasculature; 60 mg/kg (45 mg/kg plus booster 15 mg/kg 25 minutes later), individual rabbit",86 and 106
same,treated corneal vessels occluded,corneal neovasculature; 21 days after laser,about 95%
same,fluorescein perfusion,"corneal neovasculature; 21 days after laser, nine treated eyes",complete lack of perfusion
same,"laser shots required, average",corneal neovasculature; average,85 laser shots per quadrant
same,laser shots to vessel constriction,corneal neovasculature; each segment,one to three
same,acute and chronic inflammatory cells,"corneal neovasculature; rabbit, in vivo",mild to moderate numbers
same,corneal edema or polymorphonuclear leukocyte infiltration,"corneal neovasculature; rabbit, in vivo",does not produce corneal edema or polymorphonuclear leukocyte infiltration
same,inflammation along limbal vessels,"corneal neovasculature; rabbit, in vivo",No signs of inflammation
same,new vessels formed in response to treatment,"corneal neovasculature; rabbit, in vivo",nor were any new vessels formed
same,laser shots required to occlude the corneal neovasculature,corneal neovasculature; range,58 to 106 laser shots per quadrant
same,times less incident intensity than photocoagulation,corneal neovasculature; vs photocoagulation,8.5 times
same,times less total light exposure than photocoagulation,corneal neovasculature; vs photocoagulation,27.5 times
same,irradiation time,"middle cerebral artery; 2 mg per 100 g i.v., 50 mW, 514.5 nm",~5 min
same,occluded segment length,"middle cerebral artery; rat, in vivo",approximately 1 mm
same,"external examination, discoloration",[1],slightly pinkish discoloration of the mucosal surfaces
same,lethargy or change of appetite,[1],Neither lethargy nor change of appetite was noted
same,blood chemistry overall,[1]; 40 mg/kg,within the normal range except for a small number in the group that received the highest dosage
same,long-term systemic toxicity,[1]; iv,does not result in long-term systemic toxicity
same,pH of isotonic saline solution,15 mg/ml,6.80
same,highest concentration which could be achieved practically,normal saline,100 mg/mL
same,time to occlusion,"arteries; 35 kJ/sq cm large arteries, 3.5 kJ/sq cm small arteries",≤ 3 min
same,distal extension of mixture of red blood cells and coagulum,arteries; [3],at least 10 arterial diameters
same,thrombus composition,arteries; [3],thrombus of mixed character
same,photochemically induced thrombotic occlusion,arteries; irradiated arteries of rats injected with rose bengal solution,always observed
same,disappearance through the feces,[2],3 days
